Key:
barnyardgrass = experiment: Test C pre-/postemergence herbicide test; format: in vivo, Echinochloa crus-galli
Procedure, shortened: (§1)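 Response scores range from 0, meaning no effect, to 100, meaning complete control, assigned visually by comparison with controls roughly two weeks (13 to 15 days) after spraying. Applications were made preemergence to seeded loam–sand soil and postemergence to 1- to 4-leaf plants.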

lambsquarters = experiment: Test C pre-/postemergence herbicide test; format: in vivo, Chenopodium album
Procedure, shortened: as §1

wheat = experiment: Test A pre-/postemergence herbicide test; format: in vivo, Triticum aestivum; details: Postemergence
Procedure, shortened: (§2)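 Scoring was visual, relative to untreated controls, on a 0–100 scale after about 10 greenhouse days. Preemergence treatment used a directed soil spray over seeded loam/sand; postemergence treatment targeted one- to two-leaf plants of 2–10 cm.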

giant foxtail = experiment: Test A pre-/postemergence herbicide test; format: in vivo, Setaria faberii
Procedure, shortened: as §2

galium = experiment: Test C pre-/postemergence herbicide test; format: in vivo, Galium aparine
Procedure, shortened: as §1

foxtail, giant = experiment: Test C pre-/postemergence herbicide test; format: in vivo, Setaria faberii
Procedure, shortened: as §1

morningglory = experiment: Test C pre-/postemergence herbicide test; format: in vivo, Ipomoea coccinea
Procedure, shortened: as §1

johnsongrass = experiment: Test C pre-/postemergence herbicide test; format: in vivo, Sorghum halepense
Procedure, shortened: as §1

wheat (winter wheat) = experiment: Test C pre-/postemergence herbicide test; format: in vivo, Triticum aestivum
Procedure, shortened: as §1

pigweed = experiment: Test C pre-/postemergence herbicide test; format: in vivo, Amaranthus retroflexus
Procedure, shortened: as §1

[1] = Preemergence, 31 g ai/ha, scale 0 to 100, 0 is no effect and 100 is complete control
[2] = Preemergence, 62 g ai/ha, scale 0 to 100 (0 no effect, 100 complete control)
[3] = Preemergence, 125 g ai/ha, scale 0 to 100 (0 no effect, 100 complete control)
[4] = 125 g ai/ha, visual rating on 0 to 100 scale (0 no effect, 100 complete control), approx. 10 days
[5] = Postemergence, 31 g ai/ha, scale 0 to 100 (0 no effect, 100 complete control)
[6] = Postemergence, 62 g ai/ha, scale 0 (no effect) to 100 (complete control)
[7] = Postemergence, 125 g ai/ha, scale 0 to 100 (0 no effect, 100 complete control)
[8] = Postemergence, 250 g ai/ha, scale 0 to 100 (0 no effect, 100 complete control)
[9] = Preemergence, 62 g ai/ha, scale 0 to 100

O=C(Nc1ccccc1F)C1C(=S)NCC1c1cccc(C(F)(F)F)c1 (centres unmarked) [Compound 274]
Barnyardgrass plant response rating (barnyardgrass; [1]): 55
Barnyardgrass plant response rating (barnyardgrass; [2]): 65
Plant response rating, Barnyardgrass (barnyardgrass; [3]): 85
Plant response rating (scale of 0 to 100; 0 is no effect, 100 is complete control), Barnyardgrass (barnyardgrass; Preemergence, 250 g ai/ha): 90
Lambsquarters plant response rating (lambsquarters; [2]): 0
Plant response rating (scale of 0 to 100), Lambsquarters (lambsquarters; Preemergence, 250 g ai/ha): 0
Plant response rating, Wheat (wheat; [4]): 0
Plant response rating, Wheat (wheat; 1000 g ai/ha, 0 to 100 scale (0 no effect, 100 complete control)): 40
Plant response rating, Foxtail, Giant (giant foxtail; Postemergence, 1000 g ai/ha, 0 to 100 scale (0 no effect, 100 complete control)): 90
Plant response rating, Foxtail, Giant (giant foxtail; preemergence, 1000 g ai/ha, 0 to 100 scale): 90
Galium plant response rating (galium; [1]): 0
Galium plant response rating (galium; [2]): 0
Plant response rating, Galium (galium; [3]): 80
Foxtail, Giant plant response rating (foxtail, giant; [1]): 80
Foxtail, Giant plant response rating (foxtail, giant; [2]): 85
Plant response rating, Foxtail, Giant (foxtail, giant; [3]): 90
Plant response rating (scale of 0 to 100), Foxtail, Giant (foxtail, giant; Preemergence, 250 g ai/ha): 95
Morningglory plant response rating (morningglory; [1]): 0
Morningglory plant response rating (morningglory; [2]): 0
Plant response rating, Morningglory (morningglory; [3]): 0
Plant response rating (scale of 0 to 100), Morningglory (morningglory; Preemergence, 250 g ai/ha): 0
Johnsongrass plant response rating (johnsongrass; [1]): 0
Johnsongrass plant response rating (johnsongrass; [2]): 0
Plant response rating, Johnsongrass (johnsongrass; [3]): 0
Plant response rating (scale of 0 to 100), Johnsongrass (johnsongrass; Preemergence, 250 g ai/ha): 30
Wheat plant response rating (wheat (winter wheat); [1]): 0
Wheat plant response rating (wheat (winter wheat); [2]): 0
Plant response rating (scale of 0 to 100), Wheat (wheat (winter wheat); Preemergence, 250 g ai/ha): 40
Pigweed plant response rating (pigweed; [1]): 0
Pigweed plant response rating (pigweed; [2]): 0
Plant response rating, Pigweed (pigweed; [3]): 0
Plant response rating (scale of 0 to 100), Pigweed (pigweed; Preemergence, 250 g ai/ha): 0

CN1CC(c2ccc(F)c(F)c2)C(C(=O)Nc2ccccc2F)C1=O (centres unmarked) [Compound 302]
Plant response rating, Barnyardgrass (barnyardgrass; [5]): 0
Plant response rating, Barnyardgrass (barnyardgrass; [6]): 20
Plant response rating, Barnyardgrass (barnyardgrass; [7]): 40
Plant response rating, Barnyardgrass (barnyardgrass; [8]): 90
Barnyardgrass plant response rating (barnyardgrass; [1]): 90
Barnyardgrass plant response rating (barnyardgrass; [2]): 85
Plant response rating, Barnyardgrass (barnyardgrass; [3]): 100
Plant response rating (scale of 0 to 100; 0 is no effect, 100 is complete control), Barnyardgrass (barnyardgrass; Preemergence, 250 g ai/ha): 100
Plant response rating, Lambsquarters (lambsquarters; [5]): 10
Plant response rating, Lambsquarters (lambsquarters; [6]): 20
Plant response rating, Lambsquarters (lambsquarters; [7]): 60
Plant response rating, Lambsquarters (lambsquarters; [8]): 70
Lambsquarters plant response rating (lambsquarters; [1]): 0
Lambsquarters plant response rating (lambsquarters; [2]): 0
Plant response rating, Lambsquarters (lambsquarters; [3]): 60
Plant response rating (scale of 0 to 100), Lambsquarters (lambsquarters; Preemergence, 250 g ai/ha): 65
Plant response rating, Wheat (wheat; [4]): 0
Plant response rating, Wheat (wheat; 500 g ai/ha, 0 to 100 scale (0 no effect, 100 complete control)): 50
Plant response rating, Foxtail, Giant (giant foxtail; Postemergence, 125 g ai/ha, visual rating on 0 to 100 scale (0 no effect, 100 complete control), approx. 10 days): 80
Plant response rating, Foxtail, Giant (giant foxtail; Postemergence, 500 g ai/ha, 0 to 100 scale (0 no effect, 100 complete control)): 80
Plant response rating, Foxtail, Giant (giant foxtail; Preemergence, 125 g ai/ha, 0 to 100 scale where 0 is no effect and 100 is complete control): 90
Foxtail, Giant plant response rating (giant foxtail; Preemergence, 500 g ai/ha, visual rating on 0 to 100 scale (0 no effect, 100 complete control)): 90
Plant response rating, Galium (galium; [5]): 10
Plant response rating, Galium (galium; [6]): 15
Plant response rating, Galium (galium; [7]): 10
Plant response rating, Galium (galium; [8]): 45
Galium plant response rating (galium; [1]): 0
Galium plant response rating (galium; [2]): 5
Plant response rating, Galium (galium; [3]): 85
Plant response rating (scale of 0 to 100), Galium (galium; Preemergence, 250 g ai/ha): 85
Plant response rating, Foxtail, Giant (foxtail, giant; [5]): 0
Plant response rating, Foxtail, Giant (foxtail, giant; [6]): 45
Plant response rating, Foxtail, Giant (foxtail, giant; [7]): 80
Plant response rating, Foxtail, Giant (foxtail, giant; [8]): 80
Foxtail, Giant plant response rating (foxtail, giant; [1]): 90
Foxtail, Giant plant response rating (foxtail, giant; [2]): 95
Plant response rating, Foxtail, Giant (foxtail, giant; [3]): 100
Plant response rating (scale of 0 to 100), Foxtail, Giant (foxtail, giant; Preemergence, 250 g ai/ha): 100
Plant response rating, Morningglory (morningglory; [5]): 10
Plant response rating, Morningglory (morningglory; [6]): 15
Plant response rating, Morningglory (morningglory; [7]): 50
Plant response rating, Morningglory (morningglory; [8]): 25
Morningglory plant response rating (morningglory; [1]): 0
Morningglory plant response rating (morningglory; [2]): 0
Plant response rating, Morningglory (morningglory; [3]): 0
Plant response rating (scale of 0 to 100), Morningglory (morningglory; Preemergence, 250 g ai/ha): 0
Plant response rating, Johnsongrass (johnsongrass; [5]): 0
Plant response rating, Johnsongrass (johnsongrass; [6]): 0
Plant response rating, Johnsongrass (johnsongrass; [7]): 0
Plant response rating, Johnsongrass (johnsongrass; [8]): 10
Johnsongrass plant response rating (johnsongrass; [1]): 0
Johnsongrass plant response rating (johnsongrass; [2]): 15
Plant response rating, Johnsongrass (johnsongrass; [3]): 45
Plant response rating (scale of 0 to 100), Johnsongrass (johnsongrass; Preemergence, 250 g ai/ha): 65
Plant response rating, Wheat (wheat (winter wheat); [5]): 0
Plant response rating, Wheat (wheat (winter wheat); [6]): 0
Plant response rating, Wheat (wheat (winter wheat); [7]): 0
Plant response rating, Wheat (wheat (winter wheat); [8]): 0
Wheat plant response rating (wheat (winter wheat); [1]): 0
Wheat plant response rating (wheat (winter wheat); [2]): 5
Plant response rating (scale of 0 to 100), Wheat (wheat (winter wheat); Preemergence, 250 g ai/ha): 30
Plant response rating, Pigweed (pigweed; [5]): 15
Plant response rating, Pigweed (pigweed; [6]): 20
Plant response rating, Pigweed (pigweed; [7]): 20
Plant response rating, Pigweed (pigweed; [8]): 30
Pigweed plant response rating (pigweed; [1]): 0
Pigweed plant response rating (pigweed; [2]): 20
Plant response rating, Pigweed (pigweed; [3]): 25
Plant response rating (scale of 0 to 100), Pigweed (pigweed; Preemergence, 250 g ai/ha): 0

O=C1NCC(c2ccc(F)cc2)C1C(=O)Nc1cccc(F)c1F (racemic) [Compound 119]
Plant response rating, Barnyardgrass (barnyardgrass; [5]): 25
Plant response rating, Barnyardgrass (barnyardgrass; [6]): 40
Plant response rating, Barnyardgrass (barnyardgrass; [7]): 65
Plant response rating, Barnyardgrass (barnyardgrass; [8]): 80
Barnyardgrass plant response rating (barnyardgrass; [1]): 80
Plant response rating, Barnyardgrass (barnyardgrass; [9]): 90
Plant response rating, Barnyardgrass (barnyardgrass; [3]): 95
Plant response rating (scale of 0 to 100; 0 is no effect, 100 is complete control), Barnyardgrass (barnyardgrass; Preemergence, 250 g ai/ha): 98
Plant response rating, Lambsquarters (lambsquarters; [5]): 5
Plant response rating, Lambsquarters (lambsquarters; [6]): 50
Plant response rating, Lambsquarters (lambsquarters; [7]): 75
Plant response rating, Lambsquarters (lambsquarters; [8]): 70
Lambsquarters plant response rating (lambsquarters; [1]): 25
Plant response rating, Lambsquarters (lambsquarters; [9]): 60
Plant response rating, Lambsquarters (lambsquarters; [3]): 85
Plant response rating (scale of 0 to 100), Lambsquarters (lambsquarters; Preemergence, 250 g ai/ha): 85
Plant response rating, Wheat (wheat; 125 g ai/ha, 0 to 100 scale, 0 no effect, 100 complete control): 20
Wheat plant response rating (0 to 100 scale, 0 is no effect, 100 is complete control) (wheat; 500 g ai/ha): 70
Plant response rating, Foxtail, Giant (giant foxtail; 125 g ai/ha, visual rating, 0 to 100 scale, 0 no effect, 100 complete control, approximately 10 days, preemergence): 90
Plant response rating, Foxtail, Giant (giant foxtail; Postemergence, 125 g ai/ha, 0 to 100 scale, 0 no effect, 100 complete control): 90
Foxtail, Giant plant response rating (0 to 100 scale, 0 is no effect, 100 is complete control) (giant foxtail; Postemergence, 500 g ai/ha): 90
Plant response rating, Foxtail, Giant (giant foxtail; preemergence, 500 g ai/ha, 0 to 100 scale): 90
Galium plant response rating (galium; [1]): 80
Plant response rating, Galium (galium; [9]): 80
Plant response rating, Galium (galium; [3]): 85
Plant response rating (scale of 0 to 100), Galium (galium; Preemergence, 250 g ai/ha): 90
Plant response rating, Foxtail, Giant (foxtail, giant; [5]): 10
Plant response rating, Foxtail, Giant (foxtail, giant; [6]): 25
Plant response rating, Foxtail, Giant (foxtail, giant; [7]): 85
Plant response rating, Foxtail, Giant (foxtail, giant; [8]): 90
Foxtail, Giant plant response rating (foxtail, giant; [1]): 90
Plant response rating, Foxtail, Giant (foxtail, giant; [9]): 90
Plant response rating, Foxtail, Giant (foxtail, giant; [3]): 98
Plant response rating (scale of 0 to 100), Foxtail, Giant (foxtail, giant; Preemergence, 250 g ai/ha): 98
Plant response rating, Morningglory (morningglory; [5]): 0
Plant response rating, Morningglory (morningglory; [6]): 0
Plant response rating, Morningglory (morningglory; [7]): 5
Plant response rating, Morningglory (morningglory; [8]): 5
Morningglory plant response rating (morningglory; [1]): 0
Plant response rating, Morningglory (morningglory; [9]): 0
Plant response rating, Morningglory (morningglory; [3]): 35
Plant response rating (scale of 0 to 100), Morningglory (morningglory; Preemergence, 250 g ai/ha): 35
Plant response rating, Johnsongrass (johnsongrass; [5]): 0
Plant response rating, Johnsongrass (johnsongrass; [6]): 0
Plant response rating, Johnsongrass (johnsongrass; [7]): 0
Plant response rating, Johnsongrass (johnsongrass; [8]): 5
Johnsongrass plant response rating (johnsongrass; [1]): 0
Plant response rating, Johnsongrass (johnsongrass; [9]): 0
Plant response rating, Johnsongrass (johnsongrass; [3]): 30
Plant response rating (scale of 0 to 100), Johnsongrass (johnsongrass; Preemergence, 250 g ai/ha): 70
Plant response rating, Wheat (wheat (winter wheat); [5]): 0
Plant response rating, Wheat (wheat (winter wheat); [6]): 0
Plant response rating, Wheat (wheat (winter wheat); [7]): 0
Plant response rating, Wheat (wheat (winter wheat); [8]): 0
Wheat plant response rating (wheat (winter wheat); [1]): 5
Plant response rating, Wheat (wheat (winter wheat); [9]): 5
Plant response rating, Wheat (wheat (winter wheat); [3]): 60
Plant response rating (scale of 0 to 100), Wheat (wheat (winter wheat); Preemergence, 250 g ai/ha): 90
Plant response rating, Pigweed (pigweed; [5]): 10
Plant response rating, Pigweed (pigweed; [6]): 10
Plant response rating, Pigweed (pigweed; [7]): 15
Plant response rating, Pigweed (pigweed; [8]): 25
Pigweed plant response rating (pigweed; [1]): 30
Plant response rating, Pigweed (pigweed; [9]): 60
Plant response rating, Pigweed (pigweed; [3]): 75
Plant response rating (scale of 0 to 100), Pigweed (pigweed; Preemergence, 250 g ai/ha): 85
